Measurements from article PMC3115942 (PLoS ONE, 2011).
One block for each compound: values may come before it.

How the values were obtained:
[1] = system: GLI1 mRNA in PC-3 cells; assay: Real time PCR of GLI1 mRNA in PC-3; assay type: cell-based, human; conditions: 48 hrs
Description: (§1) Cells were lysed for RNA extraction after 48 or 72 hours of treatment. Total RNA from cultured cells or tumor tissue was isolated using the GeneElute miniprep kit (Sigma-Aldritch) following the manufacturer^'s instructions. cDNA was synthesized from the isolated mRNA using the Retroscript kit (Ambion), and real-time PCR was carried out using the SYBR Green PCR master mix (Stratagene) according to the manufacturer^'s instructions with an Mx3000P cycler (Stratagene). The relative concentrations of cDNA present in each sample were calculated by the MxPro software (Stratagene), normalized for GAPDH (mRNA from cells) or GUS (mRNA from tumors). For real time PCR primer sequences see Table 6. For the tumor tissue real time PCR, previously described human and mouse specific primers against GUSB, PTCH1 and GLI1were used.

[2] = system: PANC-1 cells; assay: In vitro antiproliferative assay (MTS), PANC-1; assay type: cell-based, human; conditions: 5 µM, 4 day
Description: (§2) Cells were plated at a density of 3000 (THLE-2 and PC-3) and 1000 (PANC-1, SUIT-2 and FEMX) cells per well (on the basis of their growth rate) in 200 µl of medium in a 96-well plate. Medium was changed daily, and after four days, the assay was read using a MTS kit (Promega) according to the instructions of the manufacturer. Graphs display average of percent growth with standard deviation (n = 8).

[3] = system: Hh pathway in Shh-L2 cells; assay: Hh reporter assay in Shh-L2 cells; assay type: cell-based, mouse; conditions: Mus musculus; pathway inhibition in Shh induced Shh-L2 cells, 48 hours treatment
Description: Shh-L2 cells were used as a Hh reporter cell line as described previously. Hh signaling was induced by Shh conditioned medium, 200 nM SAG (AH-Diagnostics) and ActOXS (a combination of 5 µM Hydroxycholesterol 20-alfa and 5 µM Hydroxycholesterol 22S (Sigma-Aldrich)). For Shh conditioned medium, Shh-PANC-1 cells were grown to confluence and switched to fresh medium. Shh conditioned medium was harvested after 48 hours, and was diluted to 50% in fresh DMEM before use. The clonal Shh-PANC-1 cell line was generated by stably transducing PANC-1 cells with virus containing medium from HEK293T cells that were transfected using a Virapower Lentiviral expression kit (Invitrogen). The vector was produced by removing GFP from a pLenti 6.2-vector, and inserting the mouse Shh cDNA sequence.
The calculations were performed with an online calculator using the formula: a exp (−bx) + c at the website; http://www.changbioscience.com/stat/ec50.html

[4] = system: GLI1 mRNA in SUIT-2 cells; assay: Real time PCR of GLI1 mRNA in SUIT-2; assay type: cell-based, human; conditions: 48 hrs
Description: as §1

[5] = system: Gli1 protein in Sufu−/− MEF; assay: Gli1 immunostaining of Sufu−/− MEF; assay type: cell-based, mouse; conditions: 20 µM, 48 hours
[6] = system: Gli1 mRNA expression in Sufu−/− MEF; assay: Real time PCR of Gli1 mRNA in Sufu−/− MEF; assay type: cell-based, mouse; conditions: 72 hours
Description: as §1

[7] = system: GLI1 mRNA in PANC-1 cells; assay: Real time PCR of GLI1 mRNA in PANC-1; assay type: cell-based, human; conditions: 5 µM, 48 hrs
Description: as §1

[8] = system: PANC-1, SUIT-2, PC-3 and FEMX cells; assay: In vitro antiproliferative assay (MTS), tumor cell lines; assay type: cell-based, human; conditions: 10 µM, 4 day exposure; across PANC-1, SUIT-2, PC-3 and FEMX
Description: as §2

- IC50 [3]: 30 nM
Structure (SMILES): CS(=O)(=O)c1ccc(C(=O)Nc2ccc(Cl)c(-c3ccccn3)c2)c(Cl)c1 [GDC-0449, reference compound]
- GLI1 mRNA levels, PC-3 [1]: reduced GLI1 mRNA levels
- growth (MTS), PANC-1 [2]: reduced growth
- GLI1 mRNA levels, SUIT-2 [4]: reduced GLI1 mRNA levels
- total level of Gli1 in the cells [5]: reduced Gli1 levels in the cells, but to a lesser extent than MS-0022
- inhibitory effect on Hh signaling downstream of Smo in Sufu−/− MEFs [6]: little inhibitory effect
- GLI1 mRNA levels, PANC-1 [7]: without reducing GLI1 mRNA levels
- growth reduction (MTS) [8]: ≤ 30%

Structure (SMILES): CC1=C2C[C@H]3[C@@H](CC=C4C[C@@H](O)CC[C@@]43C)[C@@H]2CC[C@]12O[C@@H]1C[C@H](C)CN[C@H]1[C@H]2C [cyclopamine, reference compound]
- IC50 [3]: 210 nM
- GLI1 mRNA levels, SUIT-2 [4]: reduced GLI1 mRNA levels
- total level of Gli1 in the cells [5]: no significant effect
- inhibitory effect on Hh signaling downstream of Smo in Sufu−/− MEFs [6]: little inhibitory effect
